# Patent publication US8642785B2, “Photolabile dinitroindolinyl based compounds” (Philadelphia Health & Education Corporation, priority 2007, dated 2014)
# Several values for one entry are separate records, joined by “and”; a condition that tells them apart may be missing. Equal entries are not always repeated.
# Legend:
# [1] = 1 GM=10^−50 cm^4s/photon; background; cited from earlier work
# [2] = background; cited from earlier work
# [3] = Basic photochemical properties: one-photon photolysis / quantum yield determination by comparison with MNI-Glu; assay type: physicochemical; details: for φ, quantum yield: Table 1, measured against MNI-Glu, filtered 280-400 nm Hg lamp; for quantum yield of photolysis: pH 7.4, compared with MNI-Glu; for ε · φ: product of extinction coefficient and quantum yield, in M-1 cm-1 (unit assumed); for photolyzed faster than MNI-Glu: pH 7.4, continuous-wave mercury arc lamp
# Procedure: The data imply that the quantum yield for release of L-glutamate from CDNI-Glu was about 0.5.
# The extent of photolysis was measured either by HPLC (with inosine as the internal standard), or using the inherent changes in the UV-visible absorption spectra of the chromophores (FIGS. 4A-4D).
# Quantum yield determination. The quantum yield for uncaging the new caged amino acids (CDNI-Glu, CNL-Glu, CNI-GABA and CNI-GABA) were measured by comparing the time of photolysis with the filtered (280-400 nm) output of a 500 W medium pressure Hg lamp of an equimolar solution (0.25 mM) of MNI-Glu and new cage. Inosine was used an inert internal standard. The path-length of the cuvette was 0.1 mm. The extent of reaction was monitored by HPLC as described previously (Huang, et al., 2005). […] Both methods gave very similar results.
# [4] = Two-photon (action) cross section; assay type: physicochemical; details: for δ (relative), two-photon action cross section: MNI-Glu = 1
# Procedure: (§1) What is the reason for continued focus on cage development? […] The first good caged glutamate was CNB-Glu (Weiboldt, et al., 1994). UV-laser excitation released glutamate quickly and with usable efficiency from this caged compound. […] For this reason, Bhc- and DMCNB-Glu were synthesized (Furuta et al., 1999; Ellis-Davies, 1999). […] However, when used for 2-photon photolysis MNI-Glu is applied at high concentrations (5-12 mM) that must be irradiated with powers at the very limit of tolerance for brain tissue (Matsuzaki, et al., 2004). For this reason, an even better caged glutamate is desired. An NI-Glu derivative was made containing a cross-linked benzophenone chromophore (“antenna-NI-Glu”, Papageorgiou, et al., 2004). When UV light (300-308 nm) was used to excite the benzophenone antenna, triplet energy transfer to the MNI cage released glutamate with high efficiency, which dropped considerably (ca. 2.5-fold) at 354 nm. […] In contrast, the inventor was able to uncage CDNI-Glu at 354 nm with very high efficiency (similar to the antenna-NI-Glu at 300 nm).
# Given the power-squared law for 2-photon excitation (Denk, et al., 1990), this implies that the new chromophore is about 140-250 higher action cross-section for 2-photon uncaging, defined by Denk et al. (1990).
# (§2) In order to evoke currents with CNI-GABA 20 mW for 2 ms and 10 mM must be used, whereas with CDNI-GABA only 4 mW and 0.5 mM are required. […] The effectiveness of CDNI-GABA is believed to be an important asset because high concentrations of the cages block GABA receptor before uncaging.
# AMPA receptor currents evoked by 2-photon uncaging of MNI-Glu and CDNI-Glu on CA1 pyramidal neurons in acutely isolated brain slices were compared. An image of neuron from slice of hippocampus Post-natal day 15 (P15) rat brain was obtained. MNI-Glu and CNDI-Glu were applied at 10 mM and 2.5 mM to the same neuron, and glutamate was uncaged in the image area at 2 power levels according to methods previously described in Matsuzaki, et al., 2001 (compare FIGS. 5A & 5B, MNI-Glu currents shown on right hand side, CDNI-Glu currents shown on left hand side). The currents evoked by uncaging from CNDI-Glu were approximately 2-3× larger than MNI-Glu, implying 5-10× better reactivity for 2-photon uncaging.
# [5] = laser flash photolysis (Gee, et al., 1994); cited from earlier work
# [6] = system: GABA receptors; details: outside-out membrane patches (Jayaraman, et al., 1999); cited from earlier work
# [7] = Hydrolysis of solutions stored at 4° C.; assay type: physicochemical
# Procedure: as §1
# [8] = Solubility in physiological buffer; assay type: physicochemical; details: for solubility (in words): physiological buffer / pH
# Procedure: as §2
# Advantageously, inventor had discovered that addition of the negative charge with CDNI-Glu solves both of these problems
# [9] = system: AMPA receptors; experiment: 2-photon uncaging of caged glutamate, AMPA receptor currents on CA1 pyramidal neurons in acutely isolated brain slices; assay type: cell-based, rat
# [10] = system: GABA receptors; experiment: 2-photon uncaging of caged GABA on hippocampal CA1 neurons in acutely isolated brain slices; assay type: cell-based, rat; details: for concentration of caged compound required to evoke currents / laser power required to evoke currents: 2-photon uncaging; for laser power required to evoke currents: 720 nm; for block of GABA receptor by the cage before uncaging: CNI-GABA at high concentrations, CDNI-GABA in smaller amount
structure (smiles),measurement,setting,value
N[C@@H](CCC(=O)OC(C(=O)O)c1ccccc1[N+](=O)[O-])C(=O)O (some centres unmarked) [CNB-Glu],2-photon cross section,[1],less than 0.001 GM
same,hydrolytic stability (in words),[2],some what hydrolytically unstable
"NC(CCC(=O)N1CCc2c(OCC(=O)O)ccc([N+](=O)[O-])c21)C(=O)O (centres unmarked) [CNI-Glu, 4-carboxymethoxy-7-nitroinlinylglutamate]","ε, molar extinction coefficient",[3],"4,300 M^−1 cm^−1"
same,fraction photolyzed during the time required for complete photolysis of CDNI-Glu,"[3]; NMR analysis of a photolysis solution of 7, CNI-Glu and CDNI-Glu",about 10%
same,"φ, quantum yield",[3],0.1
same,quantum yield of photolysis,[3],about 0.1
same,ε · φ,[3],430
same,"δ (relative), two-photon action cross section",[4],1
NCCCC(=O)OC(C(=O)O)c1ccccc1[N+](=O)[O-] (centres unmarked) [CNB-GABA],half-time of neurotransmitter release,[5],about 30 microseconds
same,10-90% rise time of activated currents,[6],about 8 ms
"COc1ccc([N+](=O)[O-])c2c1CCN2C(=O)CC[C@H](N)C(=O)O [MNI-Glu, Methoxynitroindoline-caged L-glutamate, reference compound]","ε, molar extinction coefficient",[3],"4,300 M^−1 cm^−1"
same,"φ, quantum yield",[3],0.085
same,ε · φ,[3],366
same,"δ (relative), two-photon action cross section",[4],1
same,hydrolysis after 2 d,[7],no detectable hydrolysis
same,hydrolysis after 13 d,[7],1%
COc1ccc([N+](=O)[O-])c2c1CCN2C(=O)CCCN [MNI-GABA],solubility (in words),[8],not soluble enough for uncaging
N[C@@H](CCC(=O)N1CCc2c(OCC(=O)O)c([N+](=O)[O-])cc([N+](=O)[O-])c21)C(=O)O [CDNI-Glu],"ε, molar extinction coefficient",[3],"8,600 M^−1 cm^−1"
same,release of L-glutamate on photolysis,[3]; NMR analysis of the reaction mixture,essentially quantitatively
same,"φ, quantum yield",[3],0.5
same,quantum yield for release of L-glutamate,[3]; pH 7.4,about 0.5
same,quantum yield of photolysis,[3],about 0.5
same,ε · φ,[3],"4,300"
same,"currents evoked by 2-photon uncaging, times larger than MNI-Glu","[9]; 2.5 mM vs MNI-Glu 10 mM on the same neuron, P15 rat hippocampus slice, listed as CNDI-Glu",2-3 times and 3-4 times
same,biological inertness of the cage toward AMPA receptors,[9]; before uncaging,biologically inert
same,rise- and decay-times of the evoked currents compared with MNI-Glu,[9]; same CA1 pyramidal neuron,similar
same,AMPA-receptor currents relative to MNI-Glu,"[9]; sequential alternating application and uncaging on the same CA1 pyramidal neuron, same laser energy",five-times larger
same,"action cross-section for 2-photon uncaging, higher than MNI-Glu",[4]; implied by power-squared law for 2-photon excitation,140-250
same,"δ (relative), two-photon action cross section",[4],5-10
same,hydrolysis after 13 d,[7],7%
same,solubility (in words),[8],smooth solubilization of useful concentrations
"NCCCC(=O)N1CCc2c(OCC(=O)O)c([N+](=O)[O-])cc([N+](=O)[O-])c21 [CDNI-GABA, (1-[4-Aminobutanoyl]-5,7-dinitroindolin-4-yloxy)acetic acid]","ε, molar extinction coefficient",[3],"8,600 M^−1 cm^−1"
same,"φ, quantum yield",[3],0.6
same,quantum yield of photolysis,[3],0.6
same,photolyzed faster than MNI-Glu,[3],700%
same,ε · φ,[3],5160
same,concentration of caged compound required to evoke currents,[10],0.5 mM and 0.55 mM
same,laser power required to evoke currents,[10],4 mW
same,block of GABA receptor by the cage before uncaging,[10],not blocking before uncaging
same,effectiveness relative to CNI-GABA,[10]; GABA receptors on CA1 neurons,5-10 times
same,"δ (relative), two-photon action cross section",[4],5-10
"COc1c([N+](=O)[O-])cc([N+](=O)[O-])c2c1CCN2C(=O)CCC(N)C(=O)O (centres unmarked) [MDNI-Glu, 4-methoxy-5,7-dinitroinlinylglutamate]",current signals from hippocampal neurons on 2-photon uncaging,[9]; 1 mM solutions,did not evoke any current signals
same,concentration of solutions that could be made,[8],≥ 1 mM
same,behaviour of buffer solution when frozen,"[8]; buffer, frozen, then room temperature",precipitate in buffer when frozen
NCCCC(=O)N1CCc2c(OCC(=O)O)ccc([N+](=O)[O-])c21 [CNI-GABA],"ε, molar extinction coefficient",[3],"4,300 M^−1 cm^−1"
same,"φ, quantum yield",[3],0.1
same,quantum yield of photolysis,[3],0.1
same,photolyzed faster than MNI-Glu,[3],about 10%
same,ε · φ,[3],430
same,concentration of caged compound required to evoke currents,[10],10 mM
same,laser power required to evoke currents,[10],20 mW
same,block of GABA receptor by the cage before uncaging,[10],partially blocks
same,"δ (relative), two-photon action cross section",[4],1
